Literature values, collected in US7064108B2 (Merck & Co., Inc., priority 2002, dated 2006).

Key:
[1] = test system: mammalian ligand-gated chloride channels
[2] = test system: glutamate-gated chloride ion channels; details: invertebrate nerve and muscle cells
[3] = amicrofilaremic population in mass treatment programs
[4] = test system: head lice (Pediculosis capitis); details: single oral 200 ug/kg dose, 26 patients
Onchocerca volvulus [5] = test system: Onchocerca volvulus
head lice [6] = details: single oral dose of 100–200 ug/kg
head lice [7] = details: after a single topical application
Onchocerca volvulus [8] = details: after one month; single oral dose approximately 150 ug/kg

## Nc1nc2cccc(-c3ccc(CN4CCS(=O)(=O)CC4)cc3)n2n1 [metabolite]
Metabolite of ivermectin
  plasma half life: about 3 days

## Ivermectin
[1]
  affinity for mammalian ligand-gated chloride channels: low affinity
[2]
  affinity for glutamate-gated chloride ion channels: high affinity
[3]
  overall incidences of adverse experiences: 1%
[4]
  effect against head lice: effectiveness
Onchocerca volvulus [5]; adult form of Onchocerca volvulus
  activity against adult form: not against the adult form
Onchocerca volvulus [5]; tissue microfilariae of Onchocerca volvulus
  activity against tissue microfilariae: active
Head lice [6]
  effect on head lice infestation: significant, but not absolute, effect
Head lice [7]
  effect on head lice: absolute curative effect
Onchocerca volvulus [8]
  dermal microfilarial density: near zero
In vivo
  plasma half-life: 15 to 20 h
